Data published in patent EP0811615A1, “1-Aryl-5-(substituted alkyl (thio) amido) pyrazoles and their use as pesticides” (RHONE-POULENC AGROCHIMIE, priority 1996, dated 1997).

Legend:
[1] = tested on: buckthorn or cotton aphid; assay: Buckthorn or cotton aphid foliar spray test; type: in vivo, Aphis nasturtii / Aphis gossypii; details: Aphis gossypii; foliar application at 100 ppm; counted after one day (buckthorn aphid) or three days (cotton aphid); read-out: pest mortality BA*/CA
Experimental: (§1) For mite, aphid, southern armyworm, Mexican bean beetle, and tobacco budworm tests, a solution or suspension was prepared by adding 10 mg of the test compound to a solution of 160 mg of dimethylformamide, 838 mg of acetone, 2 mg of a 3:1 ratio of Triton X-172 : Triton X-152 (respectively, mainly anionic and nonionic low foam emulsifiers which are each anhydrous blends of alkylaryl polyether alcohols with organic sulfonates), and […] of water. The result was a concentration of 100 ppm of the test compound.
Buckthorn or cotton aphid: Adult and nymphal stages of buckthorn or cotton aphid were reared on potted dwarf nasturtium or cotton plants, respectively. The potted plants (one pot per compound tested) infested with 100-150 aphids, were placed on a revolving turntable and sprayed with 100 ml of the 100 ppm test compound formulation by use of a DeVilbiss spray gun set at 40 psig air pressure. As an untreated control, 100 ml of a water-acetone-DMF-emulsifier solution, containing no test compound, were also sprayed on infested plants. A treated control with a commercial technical compound, malathion or cyhalothrin, formulated in the same manner, was tested as a standard. After spraying, the pots were stored for one day on buckthorn aphid or three days for cotton aphid, after which the dead aphids were counted.

[2] = tested on: southern armyworm; assay: Southern armyworm foliar spray test on bean plants; type: in vivo; details: Spodoptera eridania, 120 h; foliar application at 100 ppm; second instar larvae, held five days; read-out: pest mortality SAW
Experimental: as §1
(§2) Southern armyworm: Potted bean plants, were placed on a revolving turntable and sprayed with 100 ml of the 100 ppm test compound formulation by use of a DeVilbiss spray gun set at 40 psig air pressure. As an untreated control, 100 ml of a water-acetone-DMF-emulsifier solution, containing no test compound, were also sprayed on plants. A treated control with a commercial technical compound, either cypermethrin or sulprofos, formulated in the same manner, was tested as a standard. When dry, the leaves were placed in plastic cups lined with moistened filter paper. Five randomly selected second instar southern armyworm larvae were introduced into each cup which was closed and held for five days. Larvae which were unable to move the length of the body, even upon stimulation by prodding, were considered dead.

[3] = tested on: Mexican bean beetle; assay: Mexican bean beetle foliar spray test on bean plants; type: in vivo; details: Epilachna varivestis, 120 h; foliar application at 100 ppm; second instar larvae, held five days; read-out: pest mortality MBB
Experimental: as §1
as §2, with “Mexican bean beetle:” for “Southern armyworm:”, “plants” for “plants,”, “formulation, sufficient to wet the plants to runoff,” for “formulation”, “Mexican bean beetle” for “southern armyworm”

[4] = tested on: housefly; assay: House fly bait test; type: in vivo; details: Musca domestica; bait application at 100 ppm; adult flies, after 24 hours; read-out: pest mortality HF
Text: For housefly tests, the formulation was initially prepared in a similar manner to the above, but in 16.3 g of water with corresponding adjustment of other components, providing a 200 ppm concentration. Final dilution with an equal volume of a 20% by weight aqueous solution of sucrose provided a 100 ppm concentration of the test compound. When necessary, sonication was provided to insure complete dispersion.
House fly: Four to six day old adult house flies were reared according to the specifications of the Chemical Specialties Manufacturing Association (Blue Book, McNair-Dorland Co., N.Y. 1954; pages 243-244, 261) under controlled conditions. The flies were immobilized by anesthetizing with carbon dioxide and twenty five immobilized individuals, males and females, were transferred to a cage consisting of a standard food strainer and a wrapping-paper-covered surface. Ten ml of the 100 ppm test compound formulation were added to a soufflé cup containing an absorbent cotton pad. As an untreated control, 10 ml of a water-acetone-DMF-emulsifier-sucrose solution, containing no test compound, were applied in a similar manner. A treated control with a commercial technical compound, malathion, formulated in the same manner, was tested as a standard. The bait cup was introduced inside the food strainer prior to admitting the anesthetized flies.

[5] = tested on: tobacco budworm; assay: Tobacco budworm foliar spray test on cotton plants; type: in vivo; details: Heliothis virescens, 120 h; foliar application at 100 ppm; second instar larvae, held five days; read-out: pest mortality TBW
Experimental: as §1
Tobacco budworm: Potted cotton plants were placed on a revolving turntable and sprayed with 100 ml of the 100 ppm test compound formulation by use of a DeVilbiss spray gun set at 40 psig air pressure. As an untreated control, 100 ml of a water-acetone-DMF-emulsifier solution, containing no test compound, were also sprayed on plants. A treated control with a commercial technical compound, either cypermethrin or sulprofos, formulated in the same manner, was tested as a standard. When dry, the leaves were placed in plastic dishes containing a piece of filter paper and a moistened dental wick. One randomly selected second instar tobacco budworm larva was then introduced into each cup which was closed and held for five days. Larvae unable to move the length of their body, even upon stimulation by prodding, were considered dead.

[6] = tested on: southern root-knot nematode; assay: Southern root-knot nematode soil test on tomato; type: in vivo; set-up: dose or concentration left out as unconfirmed; details: Meloidogyne incognita; Soil Conc. at 21 Kg/ha; second stage juveniles; read-out: pest mortality Nema (J2)
Experimental: For southern root-knot nematode and systemic tests for southern armyworm, cotton aphid, tobacco budworm and greenbug, a stock solution or suspension was prepared by adding 15 mg of the test compound to 250 mg of dimethylformamide, 1250 mg of acetone and 3 mg of the emulsifier blend referenced above. Water was then added to provide a test compound concentration of 150 ppm. When necessary, sonication was provided to insure complete dispersion.
Southern root-knot nematode: Infected roots of tomato plants, containing egg masses of southern root-knot nematode, were removed from a stock culture and cleaned of soil by shaking and washing with tap water. The nematode eggs were separated from the root tissue and rinsed with water. Samples of the egg suspension were placed on a fine screen over a receiving bowl, in which the water level was adjusted to be in contact with the screen. From the bowl, juveniles were collected on a fine screen. The bottom of a cone-shaped container was plugged with coarse vermiculite and then filled to within 1.5 cm of the top with about a 200 ml volume of pasteurized soil. Then into a hole made in the center of the soil in the cone was pipetted an aliquot of the 150 ppm test compound formulation. A treated control with a commercial technical compound, fenamifos, formulated in a similar manner, was tested as a standard. As an untreated control, an aliquot of a water-acetone-DMF-emulsifier solution, containing no test compound, was applied in a similar manner. Immediately after treatment of the soil with the test compound there were added to the top of each cone 1000 second stage juvenile southern root-knot nematodes. After 3 days, a single healthy tomato seedling was then transplanted into the cone. The cone, containing the infested soil and tomato seedling, was kept in the greenhouse for 3 weeks. At the termination of the test, […], […]

CCOCC(=O)Nc1c(SC(F)(F)F)c(C#N)nn1-c1c(Cl)cc(C(F)(F)F)cc1Cl [Compound 2]
70 to 100%: mortality at 100 ppm [1] | mortality at 100 ppm [2] | mortality at 100 ppm [3] | mortality at 100 ppm [4] | mortality at 100 ppm [5]

COCC(=O)Nc1c([S+]([O-])C(F)(F)F)c(C#N)nn1-c1c(Cl)cc(C(F)(F)F)cc1Cl (stereo not shown) [Compound 7]
70 to 100%: mortality at 100 ppm [2] | mortality at 100 ppm [3] | mortality at 100 ppm [4] | mortality at 100 ppm [5] | mortality [6]

CCOCC(=O)Nc1c([S+]([O-])C(F)(F)F)c(C#N)nn1-c1c(Cl)cc(C(F)(F)F)cc1Cl (stereo not shown) [Compound 8]
70 to 100%: mortality at 100 ppm [2] | mortality at 100 ppm [3] | mortality at 100 ppm [4] | mortality at 100 ppm [5] | mortality [6]

COCCOCC(=O)Nc1c([S+]([O-])C(F)(F)F)c(C#N)nn1-c1c(Cl)cc(C(F)(F)F)cc1Cl (stereo not shown) [Compound 9]
70 to 100%: mortality at 100 ppm [2] | mortality at 100 ppm [3] | mortality at 100 ppm [4] | mortality at 100 ppm [5] | mortality [6]

COCC(=O)Nc1c(S(=O)(=O)C(F)(F)F)c(C#N)nn1-c1c(Cl)cc(C(F)(F)F)cc1Cl [Compound 11]
70 to 100%: mortality at 100 ppm [2] | mortality at 100 ppm [3] | mortality at 100 ppm [4] | mortality [6]

CCOCC(=O)Nc1c(S(=O)(=O)C(F)(F)F)c(C#N)nn1-c1c(Cl)cc(C(F)(F)F)cc1Cl [Compound 12]
70 to 100%: mortality at 100 ppm [2] | mortality at 100 ppm [4] | mortality at 100 ppm [5] | mortality [6]

COCCOCC(=O)Nc1c(S(=O)(=O)C(F)(F)F)c(C#N)nn1-c1c(Cl)cc(C(F)(F)F)cc1Cl [Compound 13]
70 to 100%: mortality at 100 ppm [1] | mortality at 100 ppm [2] | mortality [6]

COCC(=O)Nc1c([S+]([O-])C(F)(Cl)Cl)c(C#N)nn1-c1c(Cl)cc(C(F)(F)F)cc1Cl (stereo not shown) [Compound 17]
70 to 100%: mortality at 100 ppm [2] | mortality at 100 ppm [4] | mortality at 100 ppm [5] | mortality [6]

CCOCC(=O)Nc1c([S+]([O-])C(F)(Cl)Cl)c(C#N)nn1-c1c(Cl)cc(C(F)(F)F)cc1Cl (stereo not shown) [Compound 18]
70 to 100%: mortality at 100 ppm [2] | mortality at 100 ppm [3] | mortality at 100 ppm [5] | mortality [6]

COC(C(=O)Nc1c(SC(F)(F)F)c(C#N)nn1-c1c(Cl)cc(C(F)(F)F)cc1Cl)c1ccccc1 (stereo not shown) [Compound 22]
70 to 100%: mortality at 100 ppm [1] | mortality at 100 ppm [2] | mortality at 100 ppm [4] | mortality at 100 ppm [5]

COC(C)C(=O)Nc1c(S(=O)(=O)C(F)(F)F)c(C#N)nn1-c1c(Cl)cc(C(F)(F)F)cc1Cl (stereo not shown) [Compound 25]
70 to 100%: mortality at 100 ppm [1] | mortality at 100 ppm [2] | mortality at 100 ppm [3] | mortality at 100 ppm [4] | mortality [6]

COC(C)C(=O)Nc1c([S+]([O-])C(F)(Cl)Cl)c(C#N)nn1-c1c(Cl)cc(C(F)(F)F)cc1Cl (stereo not shown) [Compound 28]
70 to 100%: mortality at 100 ppm [2] | mortality at 100 ppm [3] | mortality at 100 ppm [4] | mortality at 100 ppm [5] | mortality [6]

N#Cc1nn(-c2c(Cl)cc(C(F)(F)F)cc2Cl)c(NC(=O)CO)c1SC(F)(F)F [Compound 32]
70 to 100%: mortality at 100 ppm [2] | mortality at 100 ppm [4] | mortality [6]

CCCCCCCOCC(=O)Nc1c(SC(F)(F)F)c(C#N)nn1-c1c(Cl)cc(C(F)(F)F)cc1Cl [Compound 34]
70 to 100%: mortality at 100 ppm [2] | mortality at 100 ppm [4] | mortality [6]

CCOC(C)C(=O)Nc1c(SC(F)(F)F)c(C#N)nn1-c1c(Cl)cc(C(F)(F)F)cc1Cl (stereo not shown) [Compound 39]
70 to 100%: mortality at 100 ppm [2] | mortality at 100 ppm [3] | mortality at 100 ppm [4] | mortality [6]

CCCCOC(C)C(=O)Nc1c(SC(F)(F)F)c(C#N)nn1-c1c(Cl)cc(C(F)(F)F)cc1Cl (stereo not shown) [Compound 42]
70 to 100%: mortality at 100 ppm [2] | mortality at 100 ppm [4] | mortality [6]

COCC(=O)Nc1c(S(=O)(=O)C(F)(F)F)c(C#N)nn1-c1ncc(C(F)(F)F)cc1Cl [Compound 50]
70 to 100%: mortality at 100 ppm [1] | mortality at 100 ppm [2] | mortality at 100 ppm [4] | mortality [6]
